Test results published in ChEMBL document CHEMBL1201862, “PubChem BioAssay data set” (2004).
Calls of active or inactive are those of the source.

Legend:
[1] = THP-1 cell cytotoxicity, cytotoxicity control, set 4 (AID 504911); format: functional; conditions: Mycobacterium tuberculosis
[2] = NIH3T3 cell viability loss – ATP luminescence, mouse fibroblasts, counter-screen, dose response (AID 2010); format: functional, cell-based;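 also: cells exposed to compound for about 90 hours before reading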
[3] = Vero E6 cell cytotoxicity, dose response, cytotoxicity control for non-replicating M. tuberculosis project, secondary assay (AID 492998); format: functional, VeroE6; conditions: Vero C1008
[4] = Vero cell cytotoxicity, cytotoxicity control for M. tuberculosis inhibitor project, purified and synthesized samples, set 3 (AID 504684); format: functional
cells = format: functional
[5] = THP-1 cell cytotoxicity, dose response, cytotoxicity control, set 3 (AID 504852); format: functional; conditions: Mycobacterium tuberculosis
[6] = Vero cell cytotoxicity, dose response, cytotoxicity control for M. tuberculosis growth inhibitor project, Vero cells, purified and synthesized compounds, set 4 (AID 504854); format: functional; conditions: Mycobacterium tuberculosis
[7] = Trypanosoma cruzi growth suppression in host cells – NIH3T3 host cells, beta-gal luminescence, confirmation (AID 2044); format: functional, cell-based;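 also: intracellular parasites grown in NIH/3T3 mouse fibroblasts as host cells; luminescent beta-galactosidase reporter signal from transgenic T. cruzi replicating inside host cells; inhibitors lower the luminescence signal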
[8] = THP-1 cell cytotoxicity, dose response, cytotoxicity control for non-replicating M. tuberculosis project (AID 489025); format: functional
[9] = Vero cell cytotoxicity, dose response, cytotoxicity control for M. tuberculosis growth inhibitor project, Vero cells, purified and synthesized compounds, set 5 (AID 504909); format: functional; conditions: Mycobacterium tuberculosis
[10] = A Cell Based Secondary Assay to Explore Cytotoxicity in THP-1 Cells of Compounds that Modulate Mycobacterium tuberculosis in Media Containing Glycerol versus Media without Glycerol (2).; format: functional
[11] = A Cell Based Secondary Assay to Explore Cytotoxicity in HepG2 Cells of Compounds that Modulate Mycobacterium tuberculosis in Media Containing Glycerol versus Media without Glycerol (2).; format: functional
[12] = HepG2 cell cytotoxicity, dose response, cytotoxicity control, set 3 (AID 504853); format: functional; conditions: Mycobacterium tuberculosis
[13] = microbe, parasite or virus in culture; format: functional; conditions: Mycobacterium tuberculosis
[14] = HepG2 cell cytotoxicity, cytotoxicity control, set 4 (AID 504910); format: functional; conditions: Mycobacterium tuberculosis
[15] = target: Melanin-concentrating hormone receptor 1 (Homo sapiens, UniProt Q99705); assay: Late-stage fluorescence-based counterscreen for antagonists of the G-protein coupled receptor 7 (GPR7): cell-based dose response assay to identify antagonists of the melanin-concentrating hormone receptor 1 (MCHR1) Set 6.; format: functional
[16] = target: T1, Neuropeptides B/W receptor type 1 (Homo sapiens, UniProt P48145); assay: human NPBW1 receptor blockade, IC50 – cell-based, fluorescence, dose response, set 6, late-stage follow-up (AID 588583); format: functional
T1 sequence (P48145 whole entry): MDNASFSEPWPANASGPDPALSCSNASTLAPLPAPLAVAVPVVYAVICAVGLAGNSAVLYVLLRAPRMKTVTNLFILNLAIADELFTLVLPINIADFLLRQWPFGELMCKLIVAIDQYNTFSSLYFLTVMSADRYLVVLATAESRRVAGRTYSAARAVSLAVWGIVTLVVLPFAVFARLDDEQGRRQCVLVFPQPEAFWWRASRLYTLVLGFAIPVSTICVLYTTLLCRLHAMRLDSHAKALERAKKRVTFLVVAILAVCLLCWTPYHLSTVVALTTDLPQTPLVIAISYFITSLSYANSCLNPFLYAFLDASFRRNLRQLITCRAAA

[17] = target: T2, High affinity choline transporter 1 (Homo sapiens, UniProt Q9GZV3); assay: human choline transporter blockers, potency – cell-based, 10-point CRC, membrane potential dye, dose response (AID 588401); format: functional;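 also: membrane potential dye fluorescence of choline-evoked depolarization via CHT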
T2 sequence (Q9GZV3 whole entry): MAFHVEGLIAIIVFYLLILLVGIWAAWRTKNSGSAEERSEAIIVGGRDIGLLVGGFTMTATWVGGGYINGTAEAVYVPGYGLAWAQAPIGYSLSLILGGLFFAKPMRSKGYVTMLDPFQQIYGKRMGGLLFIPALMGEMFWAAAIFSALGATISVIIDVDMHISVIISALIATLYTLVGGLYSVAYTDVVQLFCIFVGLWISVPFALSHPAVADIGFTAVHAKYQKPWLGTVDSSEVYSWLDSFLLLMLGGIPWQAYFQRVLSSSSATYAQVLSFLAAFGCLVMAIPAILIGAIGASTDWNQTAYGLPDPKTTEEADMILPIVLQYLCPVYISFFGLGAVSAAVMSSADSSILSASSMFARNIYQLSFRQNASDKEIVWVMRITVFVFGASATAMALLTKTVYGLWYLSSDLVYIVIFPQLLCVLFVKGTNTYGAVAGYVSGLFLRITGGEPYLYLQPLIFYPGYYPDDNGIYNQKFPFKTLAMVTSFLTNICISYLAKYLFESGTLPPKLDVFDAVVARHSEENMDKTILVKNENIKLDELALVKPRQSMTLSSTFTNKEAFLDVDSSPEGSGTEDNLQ

[18] = target: T2, High affinity choline transporter 1; assay: human choline transporter blockers, potency – cell-based, 5-point CRC, membrane potential dye, dose response (AID 504840); format: functional
Mu-type opioid receptor = Mu-type opioid receptor (Homo sapiens, UniProt P35372); assay: (§1) Counterscreen for agonists of heterodimerization of the mu 1 (OPRM1) and delta 1 (OPRD1) opioid receptors: Luminescence-based cell-based high throughput dose response assay to identify agonists of OPRM1 homodimerization.; format: functional
[19] = target: T3, Short transient receptor potential channel 4 (Mus musculus, UniProt Q9QUQ5); assay: calcium entry via TRPC4 opening agents – cell-based, HEK293 TRPC4/mu-opioid, Fluo-4 calcium, dose response (AID 434937); format: functional
T3 sequence (Q9QUQ5 whole entry): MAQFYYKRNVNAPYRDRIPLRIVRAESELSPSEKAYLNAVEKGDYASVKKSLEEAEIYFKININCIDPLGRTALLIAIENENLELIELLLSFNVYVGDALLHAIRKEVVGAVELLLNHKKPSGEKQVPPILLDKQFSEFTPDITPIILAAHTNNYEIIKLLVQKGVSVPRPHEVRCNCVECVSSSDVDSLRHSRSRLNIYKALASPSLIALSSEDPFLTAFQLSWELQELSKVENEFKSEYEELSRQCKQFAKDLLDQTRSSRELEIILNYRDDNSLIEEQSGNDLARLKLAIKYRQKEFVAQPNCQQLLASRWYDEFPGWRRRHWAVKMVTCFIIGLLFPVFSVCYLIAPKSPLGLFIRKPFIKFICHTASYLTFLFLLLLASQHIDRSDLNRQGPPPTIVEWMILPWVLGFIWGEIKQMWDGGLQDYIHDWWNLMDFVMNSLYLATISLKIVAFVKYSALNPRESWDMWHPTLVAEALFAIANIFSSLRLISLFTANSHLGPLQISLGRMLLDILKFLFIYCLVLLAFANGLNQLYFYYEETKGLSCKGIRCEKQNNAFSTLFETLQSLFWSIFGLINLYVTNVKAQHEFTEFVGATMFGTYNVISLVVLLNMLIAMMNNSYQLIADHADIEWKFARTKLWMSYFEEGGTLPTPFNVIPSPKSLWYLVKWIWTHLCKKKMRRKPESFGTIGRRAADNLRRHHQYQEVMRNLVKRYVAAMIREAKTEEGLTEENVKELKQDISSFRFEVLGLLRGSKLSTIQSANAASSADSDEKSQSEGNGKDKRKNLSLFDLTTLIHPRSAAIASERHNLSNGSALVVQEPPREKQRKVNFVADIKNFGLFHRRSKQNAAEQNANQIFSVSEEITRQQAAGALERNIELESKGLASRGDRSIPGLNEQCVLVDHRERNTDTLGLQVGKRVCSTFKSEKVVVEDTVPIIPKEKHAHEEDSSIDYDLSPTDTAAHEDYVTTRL

[20] = target: Delta-type opioid receptor (Homo sapiens, UniProt P41143); assay: as §1, with “of OPRD1” for “of OPRM1”, “homodimerization. [Related pubchem assays (depositor defined):AID504326, AID504355, AID504692, AID504904, AID504905]” for “homodimerization.”; format: functional
[21] = target: 5-hydroxytryptamine receptor 5A (Homo sapiens, UniProt P47898); assay: Counterscreen for agonists of OPRM1-OPRD1 heterodimerization: luminescence-based cell-based high throughput dose response assay to identify agonists of 5-hydroxytryptamine (serotonin) 5A receptor (HTR5A). [Related pubchem assays (depositor defined):AID504326, AID504355, AID504692, AID504904, AID504905]; format: functional
Chain of 5-hydroxytryptamine receptor 5A (P47898 whole entry): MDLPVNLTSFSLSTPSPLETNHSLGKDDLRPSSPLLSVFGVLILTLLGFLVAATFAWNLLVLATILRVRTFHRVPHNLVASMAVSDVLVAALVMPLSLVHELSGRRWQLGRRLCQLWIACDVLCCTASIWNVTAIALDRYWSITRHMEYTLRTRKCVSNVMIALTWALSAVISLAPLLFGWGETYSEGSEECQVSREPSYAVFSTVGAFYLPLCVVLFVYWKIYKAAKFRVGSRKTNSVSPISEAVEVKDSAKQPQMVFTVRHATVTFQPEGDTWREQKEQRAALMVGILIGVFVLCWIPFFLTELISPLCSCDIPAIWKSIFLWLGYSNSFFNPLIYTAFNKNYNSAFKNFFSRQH

Chain of Mu-type opioid receptor (P35372 whole entry): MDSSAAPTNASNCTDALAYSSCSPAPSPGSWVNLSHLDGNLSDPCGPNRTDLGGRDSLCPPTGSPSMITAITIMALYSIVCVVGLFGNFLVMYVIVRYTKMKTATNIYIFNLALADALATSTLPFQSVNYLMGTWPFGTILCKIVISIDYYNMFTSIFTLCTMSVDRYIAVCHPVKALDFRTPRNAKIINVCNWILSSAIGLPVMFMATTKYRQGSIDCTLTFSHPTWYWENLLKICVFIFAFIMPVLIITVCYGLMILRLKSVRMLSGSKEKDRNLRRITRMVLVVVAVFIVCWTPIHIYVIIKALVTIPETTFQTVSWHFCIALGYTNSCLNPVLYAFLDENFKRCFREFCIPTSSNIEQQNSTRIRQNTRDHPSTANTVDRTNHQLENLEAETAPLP
Chain of Melanin-concentrating hormone receptor 1 (Q99705 whole entry): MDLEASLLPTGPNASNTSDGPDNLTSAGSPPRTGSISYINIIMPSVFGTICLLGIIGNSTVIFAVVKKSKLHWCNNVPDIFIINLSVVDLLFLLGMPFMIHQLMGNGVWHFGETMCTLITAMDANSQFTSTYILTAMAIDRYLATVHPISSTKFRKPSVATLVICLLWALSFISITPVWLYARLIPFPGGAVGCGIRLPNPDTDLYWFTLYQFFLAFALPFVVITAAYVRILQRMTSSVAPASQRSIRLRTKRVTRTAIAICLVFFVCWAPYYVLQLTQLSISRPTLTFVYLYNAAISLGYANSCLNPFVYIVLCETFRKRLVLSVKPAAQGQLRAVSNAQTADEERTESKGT
Chain of Delta-type opioid receptor (P41143 whole entry): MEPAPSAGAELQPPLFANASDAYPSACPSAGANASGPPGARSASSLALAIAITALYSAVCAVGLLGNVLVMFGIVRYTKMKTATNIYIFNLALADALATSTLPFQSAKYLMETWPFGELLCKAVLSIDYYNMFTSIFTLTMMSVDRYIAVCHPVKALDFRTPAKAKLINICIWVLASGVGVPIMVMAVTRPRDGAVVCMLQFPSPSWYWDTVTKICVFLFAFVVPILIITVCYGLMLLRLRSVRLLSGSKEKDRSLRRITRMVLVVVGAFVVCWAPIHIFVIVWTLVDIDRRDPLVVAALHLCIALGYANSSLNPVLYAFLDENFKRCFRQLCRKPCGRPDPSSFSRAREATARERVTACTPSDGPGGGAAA

## Cc1[nH]c2ccccc2c1C(=O)COC(=O)c1ccc([N+](=O)[O-])s1
[1]
  CC50: 32.3 µM (active)
[2]
  EC50: > 30 µM (not active)
[3]
  CC50: > 20 µM (active)
[4]
  CC50: 25.7 µM (active)
cells
  IC50: 3.59 µM (active)
[5]
  CC50: 16.3 µM (active)
[6]
  CC50: 29 µM (active)
[7]
  EC50: 1.75 µM (active)
[8]
  CC50: 29.6 µM (active)
[9]
  CC50: > 63.9 µM (active)
[10]
  CC50: 25.1 µM (active)
[11]
  CC50: 20.7 µM (active)
[12]
  CC50: 21 µM (active)
[13]
  CC50: 32.2 µM (active)
[14]
  CC50: 30.3 µM (active)

## CCc1cnn(Cc2cccc3ccccc23)c(=O)c1C(C#N)c1ccccc1 (stereo not drawn)
[15]
  IC50: 15.2 µM (inactive)
[16]
  IC50: 15.2 µM (inactive)

## CCOc1ccc(S(=O)(=O)Nc2cccc(C(=O)NCC(c3ccccc3)N(C)C)c2)cc1 (stereo not drawn)
[17]
  IC50: 3.76 µM (active)
[18]
  IC50: 4.43 µM (active)
Mu-type opioid receptor
  EC50: > 92.5 µM (inactive)
[19]
  EC50: 2.99 µM (active)
[20]
  EC50: 14.1 µM (inactive)
[21]
  EC50: > 92.5 µM (inactive)
